Where only a bound is given, the exact number is not on record here.

The subject of one data set is BV-2. Description: Antiinflammatory activity in mouse BV2 cells assessed as inhibition of LPS-stimulated nitric oxide production at 40 uM by Griess assay relative to control. It counts as functional.
Details: not given
A word on the inhibition: it is the percentage by which the read-out fell short of the control. On to `C=C1CCC[C@H]2[C@](C)(CC3=C(O)C(=O)C=C(OC)C3=O)[C@@H](C)CC[C@]12C` [ILIMAQUINONE], for which the inhibition at 40 µM is more than 50%.
For `C=C1CCC[C@H]2[C@](CO)(Cc3cc(C(=O)OC)c(O)c(OC)c3O)[C@@H](C)CC[C@]12C`, the inhibition at 40 µM is more than 50%.
Same read-out and setting: in the case of `C=C1CCC[C@H]2[C@](C)(C[C@H]3C(=O)C=C(OC)[C@@H]3O)[C@@H](C)CC[C@]12C` it was more than 50%.
Same read-out and setting: with `C=C1CCC[C@H]2[C@](CO)(Cc3cc(C(=O)OC)cc(OC)c3O)[C@H](C)CC[C@]12C` the figure was more than 50%; with `C=C1CCC[C@H]2[C@](C)(C[C@@H]3C(=O)C=C(OC)[C@@H]3O)[C@@H](C)CC[C@]12C`, more than 50%.

The test system of another data set is BV-2. In words: Antiinflammatory activity in mouse BV2 cells assessed as inhibition of LPS-stimulated nitric oxide production by Griess assay. It counts as functional, cell-based.
Details: not given
(Griess reagent forms a coloured azo dye with nitrite.)
As a reminder, the IC50 is the concentration that gives 50% inhibition. On to `C=C1CCC[C@H]2[C@](C)(Cc3cc(C(=O)OC)cc(OC)c3O)[C@@H](C)CC[C@]12C` [POLYFIBROSPONGOL A], for which the IC50 was more than 40 µM.
For `C=C1CCC[C@H]2[C@](C=O)(Cc3cc(C(=O)OC)c(O)c(OC)c3O)[C@@H](C)CC[C@]12C`, the concentration for half-maximal inhibition (IC50) was more than 40 µM.
For `C=C1CCC[C@H]2[C@](C)(CC3=C(O)C(=O)C=C(OC)C3=O)[C@@H](C)CC[C@]12C` [ILIMAQUINONE], the IC50 came out at 10.4 µM.
Still for that read-out and setting: with `C=C1CCC[C@H]2[C@](C)(Cc3cc(C(=O)OC)ccc3O)[C@@H](C)CC[C@]12C` the figure was more than 40 µM; with `C=C1CCC[C@H]2[C@](CO)(Cc3cc(C(=O)OC)c(O)c(OC)c3O)[C@@H](C)CC[C@]12C`, 24.4 µM.
The same measure, in the same setting: in the case of `C=C1CCC[C@H]2[C@](C)(C[C@H]3C(=O)C=C(OC)[C@@H]3O)[C@@H](C)CC[C@]12C` it was 30.1 µM.
Still for that read-out and setting: with `C=C1CCC[C@H]2[C@](CO)(Cc3cc(C(=O)OC)cc(OC)c3O)[C@H](C)CC[C@]12C` the figure was 24.4 µM.
As for `C=C1CCC[C@H]2[C@](C)(C[C@@H]3C(=O)C=C(OC)[C@@H]3O)[C@@H](C)CC[C@]12C`, the 50% inhibitory concentration (IC50) is 28.3 µM.
The same measure, in the same setting: with `C=C1CCC[C@H]2[C@](C)(Cc3c(O)c(OC)cc4ncoc34)[C@@H](C)CC[C@]12C` the figure was more than 40 µM.
Same read-out and setting: with `CNC(=N)NCCC[C@H](N)C(=O)O` [TILARGININE] the figure was 22.1 µM.

System in another data set: not listed separately
Description: Cytotoxicity against mouse BV2 cells assessed as cell viability at 40 uM relative to control. The note with it: read-out: Activity. The format is cell-based, BV-2.
Take `C=C1CCC[C@H]2[C@](C)(Cc3cc(C(=O)OC)cc(OC)c3O)[C@@H](C)CC[C@]12C` [POLYFIBROSPONGOL A]: the viability at 40 µM was 125%.
On the same count and under the same terms, with `C=C1CCC[C@H]2[C@](C=O)(Cc3cc(C(=O)OC)c(O)c(OC)c3O)[C@@H](C)CC[C@]12C` the figure was 106%; with `C=C1CCC[C@H]2[C@](C)(CC3=C(O)C(=O)C=C(OC)C3=O)[C@@H](C)CC[C@]12C` [ILIMAQUINONE], 95.7%; with `C=C1CCC[C@H]2[C@](C)(Cc3cc(C(=O)OC)ccc3O)[C@@H](C)CC[C@]12C`, 121%.
On the same count and under the same terms, in the case of `C=C1CCC[C@H]2[C@](CO)(Cc3cc(C(=O)OC)c(O)c(OC)c3O)[C@@H](C)CC[C@]12C` it was 160%.
The same measure, in the same setting: in the case of `C=C1CCC[C@H]2[C@](C)(C[C@H]3C(=O)C=C(OC)[C@@H]3O)[C@@H](C)CC[C@]12C` it was 141%; in that of `C=C1CCC[C@H]2[C@](CO)(Cc3cc(C(=O)OC)cc(OC)c3O)[C@H](C)CC[C@]12C`, 171%; in that of `C=C1CCC[C@H]2[C@](C)(C[C@@H]3C(=O)C=C(OC)[C@@H]3O)[C@@H](C)CC[C@]12C`, 174%.
`C=C1CCC[C@H]2[C@](C)(Cc3c(O)c(OC)cc4ncoc34)[C@@H](C)CC[C@]12C`: the viability at 40 µM was 92.1%.
The same measure, in the same setting: with `CNC(=N)NCCC[C@H](N)C(=O)O` [TILARGININE] the figure was 95.5%.

Source of the values: ChEMBL document CHEMBL4004884, “Sesquiterpene derivatives from marine sponge Smenospongia cerebriformis and their anti-inflammatory activity” (Bioorg Med Chem Lett, 2017).
